From the SangsterLogP compilation

Assay: method code SF-AS, from PMID: 4730594
Conditions: pH 7.0

| logD | Compound |
| --- | --- |
| 1.36 | Cc1cccc2c1c([N+](=O)[O-])cc[n+]2[O-] |
| 1 | O=[N+]([O-])c1cc[n+]([O-])c2c(F)cccc12 |
| 1.08 | [O-][n+]1ccc(Cl)c2ccccc21 |
| 1.59 | Cc1cccc2c([N+](=O)[O-])cc[n+]([O-])c12 |
| 0.97 | CC(=O)ONc1ccnc2ccccc12 |
| 1.41 | O=[N+]([O-])c1cc[n+]([O-])c2ccc(Cl)cc12 |
| -0.47 | O=c1ccn(O)c2ccccc12 |
| 0.95 | O=[N+]([O-])c1cccc2c1c([N+](=O)[O-])cc[n+]2[O-] |
| 0.76 | O=[N+]([O-])c1cc[n+]([O-])c2c([N+](=O)[O-])cccc12 |
| 0.36 | O=[N+]([O-])c1ccc2ccc[n+]([O-])c2c1 |
| 1.33 | O=[N+]([O-])c1c(Cl)c[n+]([O-])c2ccccc12 |
| -0.11 | NC(=O)Cc1cc[n+]([O-])c2ccccc12 |
| 0.12 | CS(=O)(=O)c1cc[n+]([O-])c2ccccc12 |
| 1.42 | Cc1ccc2c([N+](=O)[O-])cc[n+]([O-])c2c1 |
| 0 | O/N=c1/ccn(O)c2ccccc12 |
| 0.56 | O=[N+]([O-])c1cc2ccccc2[n+]([O-])c1 |
| 0.04 | O=[N+]([O-])c1cccc2ccc[n+]([O-])c12 |
| 2.08 | CCCCc1ccc2c(c1)c([N+](=O)[O-])cc[n+]2[O-] |
| 1.51 | CC(C)(C)c1ccc2c(c1)c([N+](=O)[O-])cc[n+]2[O-] |
| 0.49 | O=[N+]([O-])c1cccc2c1ccc[n+]2[O-] |
| 0.39 | O=[N+]([O-])c1ccc2c(ccc[n+]2[O-])c1 |
| 1.04 | CC(=O)ON=c1ccn(OC(C)=O)c2ccccc12 |
| 1.43 | Cc1ccc2c(c1)c([N+](=O)[O-])cc[n+]2[O-] |
| 0.9 | O=[N+]([O-])c1ccc2c(c1)c([N+](=O)[O-])cc[n+]2[O-] |

| Compound | logD |
| --- | --- |
| Cc1c[n+]([O-])c2ccccc2c1[N+](=O)[O-] | 1.06 |
| O=[N+]([O-])c1cc[n+]([O-])c2ccccc12 | 1.02 |
| Cc1cc([N+](=O)[O-])c2ccccc2[n+]1[O-] | 1.25 |
